Test results from ChEMBL document CHEMBL1145498, “A systematic interaction map of validated kinase inhibitors with Ser/Thr kinases” (Proc Natl Acad Sci U S A, 2007).

Experiments:
[1] = molecular target: T1, Serine/threonine-protein kinase Chk1 (Homo sapiens, UniProt O14757); experiment: Inhibition of Chk1
T1 sequence (O14757 whole entry): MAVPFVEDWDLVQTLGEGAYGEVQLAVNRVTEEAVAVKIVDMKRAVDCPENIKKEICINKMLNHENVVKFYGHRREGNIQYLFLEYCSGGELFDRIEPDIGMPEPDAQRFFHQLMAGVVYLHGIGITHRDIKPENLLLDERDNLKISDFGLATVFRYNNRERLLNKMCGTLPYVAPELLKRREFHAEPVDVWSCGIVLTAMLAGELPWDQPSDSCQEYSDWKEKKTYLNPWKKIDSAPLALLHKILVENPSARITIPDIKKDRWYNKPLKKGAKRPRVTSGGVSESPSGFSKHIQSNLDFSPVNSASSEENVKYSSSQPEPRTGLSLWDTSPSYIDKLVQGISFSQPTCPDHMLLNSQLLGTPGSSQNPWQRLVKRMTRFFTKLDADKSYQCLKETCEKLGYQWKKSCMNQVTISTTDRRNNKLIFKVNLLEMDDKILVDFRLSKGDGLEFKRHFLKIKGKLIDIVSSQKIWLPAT

[2] = molecular target: Calcium/calmodulin-dependent protein kinase kinase 2 (Homo sapiens, UniProt Q96RR4)
Chain of Calcium/calmodulin-dependent protein kinase kinase 2 (Q96RR4 2-588 limits assumed): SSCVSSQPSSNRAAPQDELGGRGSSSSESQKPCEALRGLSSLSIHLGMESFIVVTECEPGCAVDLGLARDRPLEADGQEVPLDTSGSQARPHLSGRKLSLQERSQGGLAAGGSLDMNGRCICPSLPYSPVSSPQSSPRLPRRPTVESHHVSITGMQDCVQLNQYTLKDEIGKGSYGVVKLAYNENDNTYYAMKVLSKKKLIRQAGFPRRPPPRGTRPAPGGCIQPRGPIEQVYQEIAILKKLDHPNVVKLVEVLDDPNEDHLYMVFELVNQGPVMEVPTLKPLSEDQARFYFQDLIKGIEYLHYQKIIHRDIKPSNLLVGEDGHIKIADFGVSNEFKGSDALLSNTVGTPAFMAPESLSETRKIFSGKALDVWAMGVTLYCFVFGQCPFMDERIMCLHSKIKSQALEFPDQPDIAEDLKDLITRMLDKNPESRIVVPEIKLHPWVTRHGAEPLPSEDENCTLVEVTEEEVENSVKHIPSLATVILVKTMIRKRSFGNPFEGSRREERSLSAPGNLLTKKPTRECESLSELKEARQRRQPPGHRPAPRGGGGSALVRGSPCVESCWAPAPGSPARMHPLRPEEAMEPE

[3] = molecular target: Cyclin-dependent kinase-like 1 (Homo sapiens) (UniProt Q00532)
Chain of Cyclin-dependent kinase-like 1 (Homo sapiens) (Q00532 whole entry): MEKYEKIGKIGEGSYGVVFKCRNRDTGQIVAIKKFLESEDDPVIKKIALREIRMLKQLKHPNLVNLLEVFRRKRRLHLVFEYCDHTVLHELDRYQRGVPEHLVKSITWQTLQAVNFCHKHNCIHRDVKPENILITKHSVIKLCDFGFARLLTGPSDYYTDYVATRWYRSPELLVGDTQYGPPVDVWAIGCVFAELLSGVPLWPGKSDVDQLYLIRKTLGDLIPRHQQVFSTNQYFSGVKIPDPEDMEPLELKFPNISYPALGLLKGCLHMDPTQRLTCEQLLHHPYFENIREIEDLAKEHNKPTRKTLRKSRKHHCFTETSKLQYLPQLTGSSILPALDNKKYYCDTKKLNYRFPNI

[4] = molecular target: Dual specificity protein kinase CLK2 (Homo sapiens) (UniProt P49760)
Chain of Dual specificity protein kinase CLK2 (Homo sapiens) (P49760 whole entry, looked up, canonical isoform): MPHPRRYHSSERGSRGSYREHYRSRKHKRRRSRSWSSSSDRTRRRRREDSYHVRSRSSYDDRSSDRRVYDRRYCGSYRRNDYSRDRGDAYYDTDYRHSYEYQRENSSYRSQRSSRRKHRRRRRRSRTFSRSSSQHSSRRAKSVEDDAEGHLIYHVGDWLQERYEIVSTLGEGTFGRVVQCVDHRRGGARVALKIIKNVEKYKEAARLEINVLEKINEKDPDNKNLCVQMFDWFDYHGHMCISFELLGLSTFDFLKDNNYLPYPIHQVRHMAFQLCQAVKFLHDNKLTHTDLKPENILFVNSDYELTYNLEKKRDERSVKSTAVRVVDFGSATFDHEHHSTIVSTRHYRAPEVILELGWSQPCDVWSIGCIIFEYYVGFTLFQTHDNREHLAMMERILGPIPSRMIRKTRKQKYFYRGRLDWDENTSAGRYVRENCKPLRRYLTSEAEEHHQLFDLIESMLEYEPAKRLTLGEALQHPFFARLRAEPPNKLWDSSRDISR

[5] = molecular target: Casein kinase I isoform gamma-3 (Homo sapiens) (UniProt Q9Y6M4)
Chain of Casein kinase I isoform gamma-3 (Homo sapiens) (Q9Y6M4 whole entry, looked up, canonical isoform): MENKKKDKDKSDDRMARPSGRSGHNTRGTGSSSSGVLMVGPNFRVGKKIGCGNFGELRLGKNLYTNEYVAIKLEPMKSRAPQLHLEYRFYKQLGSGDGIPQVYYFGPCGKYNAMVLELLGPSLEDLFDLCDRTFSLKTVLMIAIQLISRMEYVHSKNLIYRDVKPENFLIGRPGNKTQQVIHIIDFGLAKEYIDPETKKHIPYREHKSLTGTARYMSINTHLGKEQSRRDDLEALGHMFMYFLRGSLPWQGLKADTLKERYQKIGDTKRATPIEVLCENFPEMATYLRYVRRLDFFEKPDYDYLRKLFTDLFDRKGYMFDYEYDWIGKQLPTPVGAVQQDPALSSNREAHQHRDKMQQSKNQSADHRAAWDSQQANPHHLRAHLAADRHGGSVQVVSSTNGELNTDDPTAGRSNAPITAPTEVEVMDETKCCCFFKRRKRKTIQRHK

[6] = molecular target: T2, Glycogen synthase kinase-3 beta (Homo sapiens, UniProt P49841)
Target sequence in this assay (P49841 whole entry, looked up): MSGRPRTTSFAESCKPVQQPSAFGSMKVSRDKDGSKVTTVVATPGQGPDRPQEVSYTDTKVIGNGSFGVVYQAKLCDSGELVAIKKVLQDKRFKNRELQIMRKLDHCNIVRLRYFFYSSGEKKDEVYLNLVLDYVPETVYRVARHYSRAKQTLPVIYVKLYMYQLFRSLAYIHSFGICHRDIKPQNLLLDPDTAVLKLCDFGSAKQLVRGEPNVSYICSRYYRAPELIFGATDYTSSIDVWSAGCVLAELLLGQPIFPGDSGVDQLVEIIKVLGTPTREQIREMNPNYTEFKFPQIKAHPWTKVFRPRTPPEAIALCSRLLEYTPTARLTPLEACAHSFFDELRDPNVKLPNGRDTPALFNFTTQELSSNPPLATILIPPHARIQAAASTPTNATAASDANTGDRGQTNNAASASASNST

[7] = molecular target: Dual specificity mitogen-activated protein kinase kinase 2 (Homo sapiens, UniProt P36507)
Chain of Dual specificity mitogen-activated protein kinase kinase 2 (P36507 whole entry): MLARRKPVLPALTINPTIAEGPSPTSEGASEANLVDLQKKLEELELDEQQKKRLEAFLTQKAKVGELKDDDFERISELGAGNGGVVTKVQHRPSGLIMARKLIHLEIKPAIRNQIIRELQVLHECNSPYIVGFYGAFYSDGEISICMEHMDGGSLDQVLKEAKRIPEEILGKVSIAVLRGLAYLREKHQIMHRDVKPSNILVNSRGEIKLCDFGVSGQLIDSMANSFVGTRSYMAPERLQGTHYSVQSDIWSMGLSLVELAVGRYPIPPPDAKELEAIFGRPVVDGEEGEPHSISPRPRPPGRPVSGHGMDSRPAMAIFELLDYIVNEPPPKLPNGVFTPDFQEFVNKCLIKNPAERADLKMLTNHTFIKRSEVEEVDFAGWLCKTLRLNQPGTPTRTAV

[8] = molecular target: T3, Dual specificity mitogen-activated protein kinase kinase 6 (Homo sapiens) (UniProt P52564)
T3 sequence (whole entry): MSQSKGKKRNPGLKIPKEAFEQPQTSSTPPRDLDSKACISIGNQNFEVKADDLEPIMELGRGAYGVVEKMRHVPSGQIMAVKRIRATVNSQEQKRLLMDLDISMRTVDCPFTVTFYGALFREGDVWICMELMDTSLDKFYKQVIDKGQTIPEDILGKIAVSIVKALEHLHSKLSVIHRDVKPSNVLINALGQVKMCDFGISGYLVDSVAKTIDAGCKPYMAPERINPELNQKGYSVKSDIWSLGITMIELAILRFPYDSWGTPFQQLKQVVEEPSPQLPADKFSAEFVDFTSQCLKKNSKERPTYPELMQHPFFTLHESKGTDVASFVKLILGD

[9] = molecular target: Serine/threonine-protein kinase Nek6 (Homo sapiens) (UniProt Q9HC98)
Chain of Serine/threonine-protein kinase Nek6 (Homo sapiens) (Q9HC98 whole entry): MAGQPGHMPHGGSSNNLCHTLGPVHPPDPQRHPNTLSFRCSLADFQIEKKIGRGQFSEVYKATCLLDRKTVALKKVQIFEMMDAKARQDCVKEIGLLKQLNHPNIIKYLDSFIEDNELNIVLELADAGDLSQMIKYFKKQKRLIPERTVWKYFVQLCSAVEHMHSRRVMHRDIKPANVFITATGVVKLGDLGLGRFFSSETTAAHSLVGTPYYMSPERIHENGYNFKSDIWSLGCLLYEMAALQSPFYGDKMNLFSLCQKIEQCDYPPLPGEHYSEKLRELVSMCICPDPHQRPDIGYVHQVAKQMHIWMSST

[10] = molecular target: STE20-like serine/threonine-protein kinase (Homo sapiens) (UniProt Q9H2G2)
Chain of STE20-like serine/threonine-protein kinase (Homo sapiens) (Q9H2G2 whole entry, looked up): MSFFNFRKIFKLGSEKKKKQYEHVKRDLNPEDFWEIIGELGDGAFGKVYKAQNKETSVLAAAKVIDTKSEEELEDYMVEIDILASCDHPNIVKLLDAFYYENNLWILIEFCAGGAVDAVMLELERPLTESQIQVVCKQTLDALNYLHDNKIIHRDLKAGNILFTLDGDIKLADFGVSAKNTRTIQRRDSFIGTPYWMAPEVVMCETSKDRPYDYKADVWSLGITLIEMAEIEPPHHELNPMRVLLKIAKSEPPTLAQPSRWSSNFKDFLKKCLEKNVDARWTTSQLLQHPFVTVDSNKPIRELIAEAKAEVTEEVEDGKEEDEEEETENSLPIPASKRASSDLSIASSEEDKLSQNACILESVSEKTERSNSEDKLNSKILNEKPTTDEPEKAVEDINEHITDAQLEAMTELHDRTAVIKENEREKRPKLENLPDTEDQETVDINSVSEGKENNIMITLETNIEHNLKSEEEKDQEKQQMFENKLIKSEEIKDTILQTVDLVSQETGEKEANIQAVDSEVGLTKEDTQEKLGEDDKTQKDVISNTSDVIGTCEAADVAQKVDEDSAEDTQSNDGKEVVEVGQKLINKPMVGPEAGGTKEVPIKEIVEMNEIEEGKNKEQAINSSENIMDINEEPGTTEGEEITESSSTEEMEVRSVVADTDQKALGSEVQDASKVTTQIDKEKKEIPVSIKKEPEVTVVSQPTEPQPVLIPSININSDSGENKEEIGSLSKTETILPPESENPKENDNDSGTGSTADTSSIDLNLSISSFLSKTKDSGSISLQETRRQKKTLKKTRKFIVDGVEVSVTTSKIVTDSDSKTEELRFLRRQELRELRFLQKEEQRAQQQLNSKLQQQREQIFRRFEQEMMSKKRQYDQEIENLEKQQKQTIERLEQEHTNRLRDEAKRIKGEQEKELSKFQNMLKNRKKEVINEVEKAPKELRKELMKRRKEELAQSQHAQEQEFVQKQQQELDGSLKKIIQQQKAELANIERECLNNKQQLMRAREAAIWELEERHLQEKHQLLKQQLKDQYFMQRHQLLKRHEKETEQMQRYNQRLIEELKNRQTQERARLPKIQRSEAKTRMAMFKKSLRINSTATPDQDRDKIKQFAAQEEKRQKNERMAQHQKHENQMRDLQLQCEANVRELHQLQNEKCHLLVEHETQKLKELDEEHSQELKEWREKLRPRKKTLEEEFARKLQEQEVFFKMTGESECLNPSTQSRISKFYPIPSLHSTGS

[11] = molecular target: T4, Serine/threonine-protein kinase 4 (Homo sapiens) (UniProt Q13043)
T4 sequence (whole entry): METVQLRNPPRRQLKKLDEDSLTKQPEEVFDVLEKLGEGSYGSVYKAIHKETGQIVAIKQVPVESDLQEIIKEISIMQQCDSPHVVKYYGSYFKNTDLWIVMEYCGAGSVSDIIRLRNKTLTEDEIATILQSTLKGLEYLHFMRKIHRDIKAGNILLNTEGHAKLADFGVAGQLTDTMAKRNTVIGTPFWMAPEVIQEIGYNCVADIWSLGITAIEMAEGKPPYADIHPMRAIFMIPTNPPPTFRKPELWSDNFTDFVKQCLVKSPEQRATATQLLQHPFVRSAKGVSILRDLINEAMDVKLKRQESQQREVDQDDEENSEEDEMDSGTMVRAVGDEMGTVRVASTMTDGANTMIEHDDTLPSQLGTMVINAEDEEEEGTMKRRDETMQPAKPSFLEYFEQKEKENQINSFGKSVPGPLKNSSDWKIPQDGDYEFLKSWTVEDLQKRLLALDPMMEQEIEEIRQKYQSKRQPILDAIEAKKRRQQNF

[12] = molecular target: T2, Glycogen synthase kinase-3 beta; experiment: Inhibition of GSK3-beta; settings: read-out: IC50
Target sequence in this assay (P49841 whole entry): as the sequence (P49841 whole entry, looked up) above

[13] = molecular target: Mitogen-activated protein kinase 3 (Homo sapiens, UniProt P27361); experiment: Inhibition of ERK1
Chain of Mitogen-activated protein kinase 3 (P27361 whole entry): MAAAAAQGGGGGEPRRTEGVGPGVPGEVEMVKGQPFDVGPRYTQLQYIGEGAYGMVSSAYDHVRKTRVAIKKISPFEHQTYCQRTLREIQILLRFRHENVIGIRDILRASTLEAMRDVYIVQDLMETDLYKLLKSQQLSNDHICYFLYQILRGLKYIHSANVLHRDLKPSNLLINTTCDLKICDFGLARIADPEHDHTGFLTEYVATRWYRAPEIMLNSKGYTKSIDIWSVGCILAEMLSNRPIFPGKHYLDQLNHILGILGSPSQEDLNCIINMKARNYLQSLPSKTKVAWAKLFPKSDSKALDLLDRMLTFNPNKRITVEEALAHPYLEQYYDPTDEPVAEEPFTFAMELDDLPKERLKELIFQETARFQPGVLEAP

[14] = molecular target: T5, Protein kinase C epsilon type (Homo sapiens, UniProt Q02156); experiment: Inhibition of PKCepsilon
T5 sequence (Q02156 whole entry): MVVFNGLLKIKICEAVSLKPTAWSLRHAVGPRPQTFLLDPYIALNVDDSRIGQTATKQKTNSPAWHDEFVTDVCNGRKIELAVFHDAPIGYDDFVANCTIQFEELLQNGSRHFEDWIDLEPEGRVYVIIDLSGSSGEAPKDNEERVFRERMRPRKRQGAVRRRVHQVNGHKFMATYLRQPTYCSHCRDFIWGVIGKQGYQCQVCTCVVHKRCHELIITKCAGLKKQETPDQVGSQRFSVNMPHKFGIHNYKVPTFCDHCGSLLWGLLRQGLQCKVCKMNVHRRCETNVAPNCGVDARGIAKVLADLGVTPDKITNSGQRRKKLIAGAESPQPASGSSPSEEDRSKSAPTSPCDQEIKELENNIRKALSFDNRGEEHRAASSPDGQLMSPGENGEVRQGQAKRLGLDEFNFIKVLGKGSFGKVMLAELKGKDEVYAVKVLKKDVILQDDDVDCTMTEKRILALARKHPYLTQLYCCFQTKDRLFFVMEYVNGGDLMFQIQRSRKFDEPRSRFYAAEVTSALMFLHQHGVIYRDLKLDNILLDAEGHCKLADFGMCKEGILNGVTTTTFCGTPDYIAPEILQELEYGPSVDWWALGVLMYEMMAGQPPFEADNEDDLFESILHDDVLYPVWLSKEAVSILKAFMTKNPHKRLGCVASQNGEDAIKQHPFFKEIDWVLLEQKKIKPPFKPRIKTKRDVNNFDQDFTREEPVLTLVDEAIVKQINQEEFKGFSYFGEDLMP

[15] = molecular target: Myosin light chain kinase, smooth muscle (Homo sapiens, UniProt Q15746); experiment: Inhibition of myosin light chain kinase
[16] = Binding affinity at PKC
[17] = molecular target: Mast/stem cell growth factor receptor Kit (Homo sapiens, UniProt P10721); experiment: Inhibition of c-kit

Structure (SMILES)	IC50 [1] [µM]	ΔTm [2] [°C]	ΔTm [3] [°C]	ΔTm [4] [°C]	ΔTm [5] [°C]	ΔTm [6] [°C]	ΔTm [7] [°C]	ΔTm [8] [°C]	ΔTm [9] [°C]	ΔTm [10] [°C]	ΔTm [11] [°C]	IC50 [12] [µM]	IC50 [13] [µM]	IC50 [14] [µM]	IC50 [15] [µM]	IC50 [16] [µM]	IC50 [17] [µM]
NC1=N/C(=C2/CCNC(=O)c3[nH]ccc32)C(=O)N1 [DEBROMOHYMENIALDISINE]	3	1.4	0.3	3.7	2.4	5	0.4	0.3	-0.5	0.6	2.6	–	–	–	–	–	–
O=C1Nc2ccc(S(=O)(=O)O)cc2/C1=C1/Nc2ccccc2/C1=N\O	–	4.9	3.1	3.7	3.7	8.8	4.9	3.5	0.8	1.1	7.4	0.08	–	–	–	–	–
N#C/C(=C(/N)Sc1ccc(N)cc1)c1ccccc1C(F)(F)F	–	-0.2	-0.2	0	0.6	-0.1	0.8	0.2	-0.1	0	0.8	–	> 10	–	–	–	–
COc1ccc2c(c[n+](C)c3c4cc5c(cc4ccc23)OCO5)c1OC [CHELERYTHRINE CHLORIDE]	–	-1.6	-3.5	-0.2	0.2	-1.5	-0.9	-6.6	-2.5	-2.4	-0.4	–	–	0.024	–	–	–
Cl.Cn1cc(C2=C(c3ccc4cc5n(c4c3)CCC(CN)C5)C(=O)NC2=O)c2ccccc21 (stereo not given)	–	-1.3	0.2	1	0.6	6.7	0.1	1.1	-0.7	4.5	7.1	–	–	0.039	3.7	–	–
O=C1NC(=O)c2c1c1c3ccccc3[nH]c1n1cncc21 [ISOGRANULATIMIDE]	0.1	0.5	3.7	4.1	3.6	8.8	5.3	14.6	1.5	2.1	2.5	–	–	–	–	–	–
Oc1cc(O)cc(/C=C/c2ccc(O)c(O)c2)c1 [PICEATANNOL]	–	0.5	-0.2	0.6	0.5	0.8	0.2	0.1	0.6	1.6	0.3	–	–	–	–	8	–
CCCNC(=O)Nc1ccc(Oc2ncnc3cc(OC)c(OC)cc23)cc1Cl [KRN-633]	–	0.7	0.8	-0.2	-3.7	0.1	0.2	0	0.8	0.5	0.5	–	–	–	–	–	4.33
O=C1C(Cl)=C(N2C(=O)CCC2=O)C(=O)c2ccccc21	–	-2.5	-0.5	-1.3	0.1	-3.5	-2.4	-11	-0.3	-0.6	-0.8	–	82.9	–	–	–	–
